Data on 6 compounds can be found in EP0037777A1, “Process for preparation of cycloalcoyl propanol amines useful as medicine” (PIERRE FABRE S.A., priority 1980, dated 1981).

A short description of this series: Solubility. It is filed as physicochemical. The conditions noted are these: for Solubilités : soluble dans le diméthyl sulfoxyde: in dimethyl sulfoxide (DMSO); for solubility: in water, read-out: Solubilités : soluble dans l'eau.

Values after ≈ are worked out from the molar mass of the structure shown. Where a name gives a salt, the structure may show the parent alone.

As to `CC(C)(C)NCC(O)COCC1CCCCC1` (centres unmarked) [Exemple 5, tertiobutylamino-3 cyclohexyl méthoxy-1, propanol-2, maléate], the “Solubilités : soluble dans le diméthyl sulfoxyde” value (shortened to “Solubilités ”) is recorded as 10% and the solubility amounted to 25 mg/mL (≈ 103 mM).

For `C#CC(C)(C)NCC(O)COC1CCCCC1` (centres unmarked) [Exemple 3, (diméthyl-1,1 propyne-2 yl-1) amino-3, cyclohexyloxy-1 propanol-2 oxalate], the solubility came to 20 mg/mL. On to `CC(C)(C)NCC(O)COCC1CC=CCC1` (centres unmarked) [Exemple 8, tertiobutylamino-3 (cyclohexen-3 yl-1) méthoxy-1 propanol-2, maléate], for which the “Solubilités ” value is listed as 15% and the solubility stood at 100 mg/mL (≈ 414 mM). The like results for `CC1CCCCC1OCC(O)CNC(C)(C)C` (centres unmarked) [Exemple 1, tertiobutylamino-3 (méthyl-2 cyclohexyloxy)-1 propanol-2, maléate] were, in that order, 15% and 100 mg/mL (≈ 411 mM).

As for `CC(C)(C)NCC(O)COCCC1=CCC2CC1C2(C)C` (centres unmarked) [Exemple 6, tertiobutylamino-3 [(diméthyl-6-6, bicyclo (3,1,1)hepten-2 yl)-2 éthoxy7-1 propanol-2, maléate], the “Solubilités ” value is given as 10% and the solubility came out at 20 mg/mL (≈ 67.7 mM). Consider `CC(C)NCC(O)COCC1CCCCC1` (centres unmarked) [Exemple 4, isopropylamino-3, cyclohexyl méthoxy-1 propanol-2 maléate], for which the “Solubilités ” value turned out to be 18% and the solubility turned out to be 100 mg/mL (≈ 436 mM).
